Data published in patent US5336673A, “3-substituted cephem compounds” (priority 1990, dated 1994).
≈ marks a conversion by molar mass, not a printed value.

Assays:
[1] = tested on: Escherichia coli DC O; test: Antibacterial activity, MIC by Agar dilution method, standard test strain 8; assay type: cell-based; conditions: Escherichia coli, 18 h
Procedure, shortened: (§1)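 Two-fold serial dilutions were dispersed in Mueller Hinton agar at 100~0.002 μg/ml final and inoculated with 10^7 CFU/ml test strain. Plates were incubated 18 h at 37° C. MIC taken as the lowest compound concentration with no growth.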

[2] = tested on: Staphylococcus aureus 503; test: Antibacterial activity, MIC by Agar dilution method, standard test strain 6; assay type: cell-based; conditions: 10^7 CFU/ml, 37° C., 18 hours
Procedure, shortened: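 Two-fold serial dilutions (100~0.002 μg/ml) were set in Mueller Hinton agar and inoculated at 10^7 CFU/ml. Plates were incubated 37° C. for 18 hours. MIC is the lowest concentration with no growth.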

[3] = tested on: Enterobacter cloacae P99; test: Antibacterial activity, MIC by Agar dilution method, standard test strain 19; assay type: cell-based; conditions: P99, 18 h
Procedure, shortened: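 Agar dilution: two-fold serial compound dilutions spanning 100~0.002 μg/ml in Mueller Hinton agar, inoculated at 10^7 CFU/ml. Plates incubated 18 hours at 37° C. MIC taken as the lowest concentration with no growth.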

[4] = tested on: Pseudomonas aeruginosa 1771M; test: Antibacterial activity, MIC by Agar dilution method, standard test strain 15; assay type: cell-based; conditions: 18 h
Procedure, shortened: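 Agar dilution on Mueller Hinton agar with two-fold compound dilutions at 100~0.002 μg/ml; inoculum 10^7 CFU/ml, incubation 37 °C for 18 hours. MIC taken as lowest concentration with no growth.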

[5] = tested on: Klebsiella oxytoca 1082E; test: Antibacterial activity, MIC by Agar dilution method, standard test strain 17; assay type: cell-based; conditions: 10^7 CFU/ml, 37° C., 18 hours
Procedure, shortened: as §1

[6] = tested on: Streptococcus pyogenes 77A; test: Treatment effect on systemic infection model; assay type: in vivo; conditions: im, read-out: PD50
Protocol: The antibacterial activity test on systemic infection model was carried out using the compound of Example 18 as follows: 0.3 ml of diluted solution containing lethal dose of strain was administered intraperitoneally to the test animal, and then 5 to 0.078 mg/kg of compound was administered intramuscularly.

[7] = tested on: Gram-positive strains, for example, Staphylococcus aureus; test: Antibacterial activity against Gram-positive strains (summary in words); assay type: cell-based; conditions: e.g. Staphylococcus aureus resistant to third-generation cephalosporins
Protocol: (§2) The antibacterial activity was determined by an Agar dilution method as described below.
(§3) That is, the two-fold serial dilutions of the antibacterial compounds (1000 μg compound/ml) were prepared and dispersed in Muller Hinton Agar in a petri dish to a concentration of 100~0.002 μg/ml. The culture broths of standard test strains were inoculated on the medium to a concentration 10^7 CFU/ml, and incubated at 37° C. for 18 hours. The concentration of compounds(I) at which the strains were not grown was regarded as minimum inhibition concentration (MIC).

[8] = tested on: Streptococcus faecium MD 86; test: Antibacterial activity, MIC by Agar dilution method, standard test strain 3; assay type: cell-based; conditions: Enterococcus faecium, MD86, 10^7 CFU/ml, 37° C., 18 hours
Procedure, shortened: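 Two-fold serial dilutions in Mueller Hinton agar (100~0.002 μg/ml), inoculated at 10^7 CFU/ml and incubated 18 hours at 37° C. MIC is the lowest concentration with no growth.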

[9] = tested on: Serratia spp; test: MIC against clinically isolated strains; assay type: cell-based; conditions: 18 h, 20 clinical isolates
Protocol: as §2, §3

[10] = tested on: Streptococcus II; test: MIC against clinically isolated strains; assay type: cell-based; conditions: 18 h, 17 clinical isolates
Protocol: as §2, §3

[11] = tested on: Streptococcus I; test: MIC against clinically isolated strains; assay type: cell-based; conditions: 20 clinical isolates
Protocol: as §2, §3

[12] = tested on: Pseudomonas II; test: MIC against clinically isolated strains; assay type: cell-based; conditions: 18 h, 19 clinical isolates
Protocol: as §2, §3

[13] = tested on: Morganella morganil; test: MIC against clinically isolated strains; assay type: cell-based; conditions: 18 h, 5 clinical isolates
Protocol: as §2, §3

[14] = tested on: Enterococcus I; test: MIC against clinically isolated strains; assay type: cell-based; conditions: 18 h, 20 clinical isolates
Protocol: as §2, §3

[15] = tested on: Pseudomonas aeruginosa; test: MIC against clinically isolated strains; assay type: cell-based; conditions: 18 h, 20 clinical isolates
Protocol: as §2, §3

[16] = tested on: Escherichia coli; test: MIC against clinically isolated strains; assay type: cell-based; conditions: 18 h, 20 clinical isolates
Protocol: as §2, §3

[17] = tested on: Proteus mirabilis; test: MIC against clinically isolated strains; assay type: cell-based; conditions: 18 h, 4 clinical isolates
Protocol: as §2, §3

[18] = tested on: Escherichia coli TEM; test: Antibacterial activity, MIC by Agar dilution method, standard test strain 10; assay type: cell-based; conditions: Escherichia coli TEM; 10^7 CFU/ml, 37° C., 18 hours; read-out: MIC
Procedure, shortened: as §1

[19] = tested on: Streptococcus pyogenes A 308; test: Antibacterial activity, MIC by Agar dilution method, standard test strain 1; assay type: cell-based; conditions: A308, 10^7 CFU/ml, 37° C., 18 hours
Procedure, shortened: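 Agar dilution in Mueller Hinton agar with two-fold serial dilutions from 100 to 0.002 μg/ml. Inoculum 10^7 CFU/ml, incubated 18 h at 37 °C. MIC taken as lowest concentration with no growth.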

[20] = tested on: Salmonella typhimurium; test: Antibacterial activity, MIC by Agar dilution method, standard test strain 16; assay type: cell-based; conditions: Salmonella enterica, 10^7 CFU/ml, 37° C., 18 hours
Procedure, shortened: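 Two-fold serial dilutions dispersed in Mueller Hinton agar at 100~0.002 μg/ml; inoculated at 10^7 CFU/ml and incubated 37 °C for 18 h. MIC taken as lowest concentration with no visible growth.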

[21] = tested on: Streptococcus pyogenes A 77; test: Antibacterial activity, MIC by Agar dilution method, standard test strain 2; assay type: cell-based; conditions: A77, 10^7 CFU/ml, 37° C., 18 hours
Procedure, shortened: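 Two-fold serial compound dilutions in Mueller Hinton agar at 100~0.002 μg/ml; strains inoculated at 10^7 CFU/ml. After 18 hours at 37° C, the concentration preventing growth was taken as MIC.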

[22] = target: T1, β-lactamase from E. coli TEM (Escherichia coli, UniProt P62593); test: Stability against β-lactamase, relative hydrolysis; assay type: biochemical; conditions: E. coli TEM enzyme; 100 μM; relative(percentage), Cephaloridine taken as 100; OD at 260 nm
T1 construct: directly isolated from Enterobacter cloacae P99, E. coli TEM and Citrobacter freundii; endogenous in cells; host or cells: E. coli TEM (plasmid-carried enzyme of the strain)
Protocol: (§4) In order to establish the usefulness in clinical applications of the compounds provided by the invention, the compound of Example 18 was tested for stability against the β-lactamase and for antibacterial activity on systemic infection model.
(§5) First, the stability against the β-lactamase was tested by determining the relative(percentage) hydrolysis of the compound of Example 18, relative to that of Cephaloridine, taking the absolute rate of Cephaloridine as 100.
(§6) The β-lactamases employed in the test were directly isolated from Enterobacter cloacae P99, E. coli TEM and Citrobacter freundii, and the antibiotics for comparison were Cephaloridine, Cephradine, Cefoperazone and Cefotaxime.
(§7) Cephaloridine, other known antibiotics and the compound of Example 18 were reacted with each of the enzymes isolated from the strains and the OD were determined at 260 nm, λmax of Cephaloridine. The relative hydrolysis of various compounds were calculated relative to the OD of Cephaloridine.

[23] = target: T2, β-lactamase from Citrobacter freundii (Citrobacter freundii, UniProt P05193); test: Stability against β-lactamase, relative hydrolysis; assay type: biochemical; conditions: Citrobacter freundii enzyme; 100 μM; relative(percentage), Cephaloridine taken as 100; OD at 260 nm
T2 construct: directly isolated from Enterobacter cloacae P99, E. coli TEM and Citrobacter freundii; endogenous in cells
Protocol: as §4, §5, §6, §7

[24] = tested on: Staphylococcus aureus SG 511; test: Antibacterial activity, MIC by Agar dilution method, standard test strain 4; assay type: cell-based; conditions: SG511, 10^7 CFU/ml, 37° C., 18 hours
Procedure, shortened: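 Agar dilution MIC: two-fold serial dilutions in Mueller Hinton agar spanning 100~0.002 μg/ml, inoculated at 10^7 CFU/ml. Plates incubated 18 h at 37 °C; MIC is the lowest concentration with no growth.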

[25] = tested on: Escherichia coli DC 2; test: Antibacterial activity, MIC by Agar dilution method, standard test strain 9; assay type: cell-based; conditions: Escherichia coli, DC2, 18 h
Procedure, shortened: as §1

T2 sequence (P05193 21-381): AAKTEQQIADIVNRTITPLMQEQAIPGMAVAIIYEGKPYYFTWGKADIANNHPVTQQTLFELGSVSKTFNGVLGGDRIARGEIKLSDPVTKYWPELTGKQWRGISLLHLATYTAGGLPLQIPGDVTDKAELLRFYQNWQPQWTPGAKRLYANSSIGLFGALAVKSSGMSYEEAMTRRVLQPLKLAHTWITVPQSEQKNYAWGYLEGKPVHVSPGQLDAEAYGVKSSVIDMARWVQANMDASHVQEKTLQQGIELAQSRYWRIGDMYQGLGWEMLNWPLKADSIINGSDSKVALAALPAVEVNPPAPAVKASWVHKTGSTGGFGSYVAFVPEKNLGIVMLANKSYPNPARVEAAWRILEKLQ
T1 sequence (P62593 24-286 limits assumed): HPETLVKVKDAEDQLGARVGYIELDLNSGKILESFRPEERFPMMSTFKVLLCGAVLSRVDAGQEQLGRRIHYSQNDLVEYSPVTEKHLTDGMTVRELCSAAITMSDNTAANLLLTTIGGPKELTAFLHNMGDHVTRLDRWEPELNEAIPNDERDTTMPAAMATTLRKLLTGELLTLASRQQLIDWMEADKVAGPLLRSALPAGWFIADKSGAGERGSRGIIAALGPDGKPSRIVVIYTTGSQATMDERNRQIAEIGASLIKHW

**Q.** What does the source list for `CON=C(C(=O)NC1C(=O)N2C(C(=O)[O-])=C(C[n+]3nn(N)c4ccccc43)CSC12)c1csc(N)n1` [Example 18, (6R,7R)-7-[(Z)-2-(2-aminothiazol-4-yl)-2-methoxyiminoacetamido]-3-[(1-aminobenzotriazol-3-ium)methyl]-ceph-3-em-4-carboxylate]?
**A.** MIC [1]: 0.025 µg/mL (≈ 0.0472 µM); MIC [2]: 0.195 µg/mL (≈ 0.368 µM); MIC [3]: 12.5 µg/mL (≈ 23.6 µM); MIC [4]: 0.781 µg/mL (≈ 1.47 µM); MIC [5]: 0.049 µg/mL (≈ 0.0925 µM); ED50 [6]: 0.27 mg/kg; antibacterial activity (in words) [7]: strong activity; MIC [8]: > 100 µg/mL; MIC [9]: 0.013 to 0.098 µg/mL (≈ 0.0245 to 0.185 µM); MIC50 [9]: 0.025 µg/mL (≈ 0.0472 µM); MIC90 [9]: 0.049 µg/mL (≈ 0.0925 µM); MIC [10]: 0.002 to 0.013 µg/mL (≈ 0.00378 to 0.0245 µM); MIC50 [10]: 0.004 µg/mL (≈ 0.00755 µM); MIC90 [10]: 0.007 µg/mL (≈ 0.0132 µM); MIC Range [11]: 0.004 to 12.5 µg/mL; MIC50 ([11]; 18 h): 0.025 µg/mL (≈ 0.0472 µM); MIC90 ([11]; 18 h): 6.25 µg/mL (≈ 11.8 µM); MIC [12]: 0.391 to 12.5 µg/mL (≈ 0.738 to 23.6 µM); MIC50 [12]: 1.56 µg/mL (≈ 2.95 µM); MIC90 [12]: 6.25 µg/mL (≈ 11.8 µM); MIC [13]: 0.004 to 0.025 µg/mL (≈ 0.00755 to 0.0472 µM); MIC50 [13]: 0.013 µg/mL (≈ 0.0245 µM); MIC90 [13]: 0.025 µg/mL (≈ 0.0472 µM); MIC [14]: 0.007 to 0.195 µg/mL (≈ 0.0132 to 0.368 µM); MIC50 [14]: 0.025 µg/mL (≈ 0.0472 µM); MIC90 [14]: 0.049 µg/mL (≈ 0.0925 µM); MIC [15]: 1.56 to 25 µg/mL (≈ 2.95 to 47.2 µM); MIC50 [15]: 6.25 µg/mL (≈ 11.8 µM); MIC90 [15]: 12.5 µg/mL (≈ 23.6 µM); MIC [16]: 0.007 to 0.195 µg/mL (≈ 0.0132 to 0.368 µM); MIC50 [16]: 0.013 µg/mL (≈ 0.0245 µM); MIC90 [16]: 0.025 µg/mL (≈ 0.0472 µM); MIC [17]: 0.013 to 0.098 µg/mL (≈ 0.0245 to 0.185 µM); MIC50 [17]: 0.013 µg/mL (≈ 0.0245 µM); MIC90 [17]: 0.098 µg/mL (≈ 0.185 µM); MIC [18]: 0.013 µg/mL (≈ 0.0245 µM); MIC [19]: 0.004 µg/mL (≈ 0.00755 µM); MIC [20]: 0.195 µg/mL (≈ 0.368 µM); MIC [21]: 0.004 µg/mL (≈ 0.00755 µM); Relative hydrolysis by β-lactamase [22]: 0.0; Relative hydrolysis by β-lactamase [23]: 0.2; MIC [24]: 0.391 µg/mL (≈ 0.738 µM); MIC [25]: 0.025 µg/mL (≈ 0.0472 µM)
